Experimental data as given in patent US20120071493A1, “SUBSTITUTED 8-SULFONYL-2,3,4,5-TETRAHYDRO-1H-GAMMA-CARBOLINES, LIGANDS AND PHARMACEUTICAL COMPOSITION; METHOD FOR THE PRODUCTION AND USE OF SAME” (priority 2009, published 2012).

What was measured:
[1] = tested on: animals as in example 18.1.1; assay: Passive avoidance, memory disturbed by MK-801; type: in vivo, mice; details: 0.2 mg/kg and 1 mg/kg intraperitoneally before training; MK-801 0.1 mg/kg
[2] = tested on: mice; assay: Porsolt's Forced Swim Test; type: in vivo; details: injected for 4 days in doses of 1 mg/kg; 15 minutes test
Procedure: Mice Behavior in Porsolt's Forced Swim Test. The test apparatus represented a plastic vessel filled with water up to height of 18 cm at 20-22° C. Mice were placed in water and for 15 minutes the duration of immobile hanging in water-so called behavioural […], which is considered to be a measure of depressively-like state, was registered. Automated computerized detection of motion with videosystem and Any-maze programm were used in test. […] This testifies the decreasing of time of a depressively-like state.

[3] = tested on: male mice of SHK line; assay: Novel Object Recognition test, Scopolamine-disturbed recognition; type: in vivo; details: 0.05 mg/kg and 0.2 mg/kg intraperitoneally 30 minutes before training; Scopolamine 1 mg/kg
Procedure: The test was carried out in aged male mice of SHK line. Plexiglass plus maze, consisted of 4 dead-end chambers (numbered 1, 2, 3, 4), joined together through the fifth central chamber, was used in experiments. Mouse was placed into central chamber and allowed to explore the maze. Floor was cleaned after each animal. The sequence of chamber entries and duration of visits were registered by observer. Test was ended after 13 entries into dead-end chambers. Criterion for entry was location of all animal's paws inside the chamber at the same time.
During the training an animal was placed in the maze with one equiform bowl in each side chamber. In the course of testing (one hour after training) two opposite standing bowls were replaced by identical flasks, and animal was allowed to explore the maze. The time spent by animal in each side chamber was registered during the periods of training and testing. Index of novel object recognition was calculated as ratio of time spent by animal in side chambers with novel objects to the total time spent by it in all side chambers. In comparison with the training phase the appearance of novel object extends the time spent by animal in the chamber with novel object (so-called effect of novel object recognition). The recognition of novel objects was disturbed under action of Scopolamine administered in 1 mg/kg dose intraperitoneally 30 minutes before training, and recognition index was decreased.

[4] = tested on: mice; assay: Mice Training in the Morris Water maze, Scopolamine memory impairment; type: in vivo; details: intraperitoneally 35-40 minutes before training, with Scopolamine
Procedure: Mice Training in the Morris Water maze. A round pool filled with water at 20-22° C. was used. There was a round ceramic platform of 14 cm height in the pool. Animals's (mice) behavior was registered with an automated computer video system in combination with software package of movement analysis Any-maze (Stoelting Co., CIIIA). Selection of mice suitable for training was carried out before the experiments. For this purpose the platform was placed 1 cm above the water level and an animal was put on the platform for 20 seconds. Then the mouse was sunk into the water on the opposite side of the pool, allowed to find the platform and climb it for 60 seconds, where it was left for 20 seconds. After that the mouse was repeatedly immersed into water on the opposite side of the pool and allowed to find the platform. If it failed in finding the platform within 60 seconds the experimentator helped it to find the platform and climb it. If the mice couldn't find the platform itself in two consecutive attempts it was excluded from the experiment. During the next two days the platform was placed 0.5 cm lower the water level. Every day the mice were given four attempts for finding the platform within 60 seconds. The time interval between the attempts was 20 seconds, during which the mice stayed on the platform. Every day before the first attempt the mice was placed on the platform for 20 seconds. […]

[5] = tested on: male mice of BALB/c line; assay: Mice Behavior in the Elevated Plus Maze test; type: in vivo; details: 0.05 mg/kg and 0.2 mg/kg intraperitoneally
Procedure: The experiments were carried out in aged male mice of BALB/c line weighing about 25 g. Animals were housed 5-7 per cage with water and food available. None of animals was acquainted with experimental set-up before. Each experimental group included 8 animals.
The procedure used was described earlier by Lister (Lister R. G. The use of a plus-maze to measure anxiety in the mouse. Psychopharmacology, 1987; 92:180-185). Plexiglass set-up consisted of two opened arms of 30×5 cm size and two closed arms of 30×5×15 cm size was used. Side arms were closed with transparent plexiglass and were connected with central zone via platform of 5×5 cm size. Opened arms, central platform and floor were made of black plexiglass. The set-up was mounted on a metallic base which was placed 38.5 cm above floor level.
Animals were injected intraperitoneally with placebo, Buspirone (5 mg/kg, 30 minutes before training), Lorazepam (0.05 mg/kg, 60 minutes before training) or with one of the compounds of the general formula 1, for example, compound 1.1.1(4).HCl or compound 1.2.1(3).HCl in doses 0.05 mg/kg and 0.2 mg/kg. Buspirone and Lorazepam were introduced in maximal effective dose, at which side sedative effect and general decrease of exploratory activity (number of arm entries during the test) were not observed yet.
Each mouse was placed in maze center with its head towards the opened arm. Over a period of 5 minutes the sequence and duration of arm entries were registered by means of computer program. Criterion for entry is location of all animal's paws inside the arm at the same time. Index of preference was calculated as ratio of the time spent by animal in opened arms as well as the number of entries into opened arms to the total time spent by it in opened and closed arms or, respectively, to the whole number of entries to arms of both types. The number of defecations left by mouse was regarded as additional parameter characterizing anxiety state.

[6] = tested on: 31 receptors (alpha-adrenoceptors, dopamine, histamine, imidazoline, sigma, norepinephrine and serotonin receptors); assay: Displacement of radio-labelled ligands from 31 receptors (MDS Pharma Services); type: binding
Procedure: The interaction was estimated by the displacement of radio-labeled […] from their complex with the corresponding receptors by compound 1.1.1(4).HCl at its concentration of 10 mkM. […] The interaction was estimated by the displacement of radio-labeled […] from their complex with the corresponding receptors by compound 1.2.1(3).HCl at its concentration of 1 mkM. […] All radio-labelled experiments were carried out by MDS Pharma Services firm ([…].com/Services, Taipei, Taiwan) according to their protocols. Estimation of the results obtained is indicative of wide range of pharmacological activity of γ-carbolines of the general formula 1 towards alpha-adrenoceptors, dopamine receptors, histamine receptors, imidazoline receptors, sigma receptors, norepinephrine receptors and serotonin receptors.

Structure (SMILES)	effect on amnesia caused by MK-801, passive avoidance [1]	duration of immobile hanging of mice in water [2]	prevention of Scopolamine influence on novel object recognition [3]	effect on memory impairment caused by Scopolamine, Morris water maze [4]	anxiolytic effect in elevated plus maze [5]	% of radio-labelled ligands displacement ([6]; at 13 of 31 receptors, compound at 10 mkM, FIG. 1)	number of receptors the compound actively interacts with (displacement >60%) ([6]; of 31 receptors, compound at 10 mkM, FIG. 1)	interaction with 31 receptors (displacement of radio-labelled ligands) ([6]; FIG. 2, compound at 1 mkM per figure legend)
CN1CCc2c(c3cc(S(=O)(=O)c4ccccc4)ccc3n2C)C1.Cl [1.1.1(4)•HCl, 2,5-dimethyl-8-(phenylsulfonyl)-2,3,4,5-tetrahydro-1H-γ-carboline hydrochloride]	decrease amnesia caused by MK-801 markedly	decreased almost thrice	could be prevented	decreasing of memory impairment	well-marked anxiolytic effect	> 60%	13	
CN1CCc2[nH]c3ccc(S(=O)(=O)Nc4cccc(F)c4)cc3c2C1.Cl [1.2.1(3)•HCl, 2-methyl-2,3,4,5-tetrahydro-1H-γ-carboline-8-sulfonic acid 3-fluorophenyl amide hydrochloride]	analogous effect	decreased almost thrice	could be prevented	decreasing of memory impairment	well-marked anxiolytic effect			Analogous results
